Measurements as given in patent publication US20250026754A1, “SMALL MOLECULE INHIBITORS OF UBIQUITIN SPECIFIC PROTEASE 1 (USP1) AND USES THEREOF” (INSILICO MEDICINE IP LIMITED, priority 2021, published 2025).

System: MDA-MB-436 cells
Test: MDA-MB-436 breast cancer cell proliferation assay (CellTiter-Glo)
Type: cell-based
Settings: Homo sapiens, 168 h, 7 days
Method: MDA-MB-436 cells were grown in Leibovitz's L-15 medium with 10 μg/ml insulin, 16 μg/ml glutathione, 10% FBS. Cells were passaged at subconfluence after trypsinization and maintained in incubators at 37° C. in a humidified atmosphere with 5% CO2.
Cell proliferation was determined using CellTiter-Glo® Luminescent Cell Viability Assay (Promega, #G7573). MDA-MB-436 cells were seeded in 384-well plates and allowed to attach for 24 h. Compounds were added into 384-well plate by ECHO, and incubated at 37 C° in a humidified atmosphere with 5% CO2. After 7 days, CellTiter-Glo was added into 384 well plates, contents were mixed on an orbital shaker at […] for 2 min before centrifuging the plate for 2 min at 1000 rpm. After incubation at RT for 30 min, luminescence was read on envision.

- IC50: 0.05 to 1 µM
SMILES: COc1ncnc(C2CC2)c1-c1nn(C)c2c1CN(c1ccc(-n3nc(C(F)(F)F)cc3C)cn1)CC2 [Example 15, 3-(4-cyclopropyl-6-methoxypyrimidin-5-yl)-1-methyl-5-(5-(5-methyl-3-(trifluoromethyl)-1H-pyrazol-1-yl)pyridin-2-yl)-4,5,6,7-tetrahydro-1H-pyrazolo[4,3-c]pyridine]
